Results published in patent US11446287B2, “Compounds and methods for EP300 or CBP modulation and indications therefor” (Opna Immuno-Oncology SA, priority 2019, dated 2022).

These compounds were tested against T1, Recombinant human EP300 containing the bromodomain (EP300-BD (1040-1161)) (Homo sapiens, UniProt Q09472) (assay: EP300 Alphascreen binding assay).
T1 construct: Recombinant human EP300 bromodomain (EP300-BD (1040-1161)); made in house; host or cells: E. coli BL21-CodonPlus (DE3), modified pET vector
T1 sequence (Q09472 1040-1161): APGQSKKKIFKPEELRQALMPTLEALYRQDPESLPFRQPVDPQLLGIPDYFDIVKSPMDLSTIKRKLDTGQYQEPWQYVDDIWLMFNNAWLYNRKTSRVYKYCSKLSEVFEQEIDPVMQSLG
Procedure, shortened: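 Displacement of a biotinylated acetyl-K56 histone H3 peptide from the N-His bromodomain construct (1040-1161) measured by AlphaScreen proximity, beads at 7.5 μg/ml final, read 60 min after addition. Protein, peptide and compound first incubated 1 h at room temperature, pH 7.5 HEPES buffer; IC50 by four-parameter logistic fit.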
For `Cc1cc(C(=O)O)cnc1-n1cc(CC2CCC2)c2ncc(-c3c(C)noc3C)cc21` [P-0075, 6-(3-(cyclobutylmethyl)-6-(3,5-dimethylisoxazol-4-yl)-1H-pyrrolo[3,2-b]pyridin-1-yl)-5-methylnicotinic acid], the IC50 was 0.0001 to 1 µM. `Cc1noc(C)c1-c1cnc2c(CC3CCC3)cn(-c3ccc(C#N)cc3)c2c1` [P-0076, 4-(3-(cyclobutylmethyl)-6-(3,5-dimethylisoxazol-4-yl)-1H-pyrrolo[3,2-b]pyridin-1-yl)benzonitrile] gave an IC50 of 1 to 8 µM. With `Cc1noc(C)c1-c1cnc2c(CC3CCC3)cn(-c3ccnc(C#N)c3)c2c1` [P-0077, 4-(3-(cyclobutylmethyl)-6-(3,5-dimethylisoxazol-4-yl)-1H-pyrrolo[3,2-b]pyridin-1-yl)picolinonitrile] the IC50 was 0.0001 to 1 µM. `Cc1noc(C)c1-c1cnc2c(c1)c(-c1cccc(C(=O)NC#N)c1)cn2Cc1ccccc1` [P-0078, 3-(1-benzyl-5-(3,5-dimethylisoxazol-4-yl)-1H-pyrrolo[2,3-b]pyridin-3-yl)-N-cyanobenzamide] was tested, and the IC50 was 0.0001 to 1 µM. With `Cc1noc(C)c1-c1cnc2c(c1)c(-c1cccc(C(=O)NO)c1)cn2Cc1ccccc1` [P-0079, 3-(1-benzyl-5-(3,5-dimethylisoxazol-4-yl)-1H-pyrrolo[2,3-b]pyridin-3-yl)-N-hydroxybenzamide] the IC50 was 0.0001 to 1 µM. Compound `Cc1noc(C)c1-c1cnc2c(c1)c(-c1ccc(C(=O)O)cc1)cn2C(C)c1ccccn1` (stereo not shown) [P-0080, 4-(5-(3,5-dimethylisoxazol-4-yl)-1-(1-(pyridin-2-yl)ethyl)-1H-pyrrolo[2,3-b]pyridin-3-yl)benzoic acid] has an IC50 of 1 to 8 µM. Work on `Cc1noc(C)c1-c1cnc2c(c1)c(-c1cccc(S(N)(=O)=O)c1)cn2Cc1ccccc1` [P-0081, 3-(1-benzyl-5-(3,5-dimethylisoxazol-4-yl)-1H-pyrrolo[2,3-b]pyridin-3-yl)benzenesulfonamide] yielded an IC50 of 0.0001 to 1 µM. For `CNS(=O)(=O)c1cccc(-c2cn(Cc3ccccc3)c3ncc(-c4c(C)noc4C)cc23)c1` [P-0082, 3-(1-benzyl-5-(3,5-dimethylisoxazol-4-yl)-1H-pyrrolo[2,3-b]pyridin-3-yl)-N-methylbenzenesulfonamide], the IC50 was 1 to 8 µM. For `Cc1noc(C)c1-c1cnc2c(c1)c(-c1cccc(S(=O)(=O)NC3CC3)c1)cn2Cc1ccccc1` [P-0083, 3-(1-benzyl-5-(3,5-dimethylisoxazol-4-yl)-1H-pyrrolo[2,3-b]pyridin-3-yl)-N-cyclopropylbenzenesulfonamide], the IC50 was 0.0001 to 1 µM. In the case of `Cc1noc(C)c1-c1cnc2c(C(=O)C3CC3)c(O)n(-c3ccnc(C(=O)O)c3)c2c1` [P-0084, 4-(3-(cyclopropanecarbonyl)-6-(3,5-dimethylisoxazol-4-yl)-2-hydroxy-1H-pyrrolo[3,2-b]pyridin-1-yl)picolinic acid], the IC50 is reported as 0.0001 to 1 µM. In the case of `Cc1noc(C)c1-c1cnc2c(c1)c(-c1cccc(C(=O)O)c1)cn2C(=O)c1ccccc1` [P-0085, 3-(1-benzoyl-5-(3,5-dimethylisoxazol-4-yl)-1H-pyrrolo[2,3-b]pyridin-3-yl)benzoic acid], the IC50 is reported as 0.0001 to 1 µM. In the case of `Cc1noc(C)c1-c1cnc2c(CC3CCC3)cn(-c3c(C(=O)O)ccc(Br)c3F)c2c1` [P-0086, 4-bromo-2-(3-(cyclobutylmethyl)-6-(3,5-dimethylisoxazol-4-yl)-1H-pyrrolo[3,2-b]pyridin-1-yl)-3-fluorobenzoic acid], the IC50 is reported as 0.0001 to 1 µM. `COc1c(-n2cc(CC3CCC3)c3ncc(-c4c(C)noc4C)cc32)ccc(C(=O)O)c1F` [P-0087, 4-(3-(cyclobutylmethyl)-6-(3,5-dimethylisoxazol-4-yl)-1H-pyrrolo[3,2-b]pyridin-1-yl)-2-fluoro-3-methoxybenzoic acid] was tested, and the IC50 was 0.0001 to 1 µM. Work on `Cc1noc(C)c1-c1cnc2c(C(=O)c3cccc(Cl)c3)cn(-c3ccnc(C(=O)O)c3)c2c1` [P-0088, 4-(3-(3-chlorobenzoyl)-6-(3,5-dimethylisoxazol-4-yl)-1H-pyrrolo[3,2-b]pyridin-1-yl)picolinic acid] yielded an IC50 of 0.0001 to 1 µM. `Cc1noc(C)c1-c1cnc2c(C(=O)c3ccccc3Cl)cn(-c3ccnc(C(=O)O)c3)c2c1` [P-0089, 4-(3-(2-chlorobenzoyl)-6-(3,5-dimethylisoxazol-4-yl)-1H-pyrrolo[3,2-b]pyridin-1-yl)picolinic acid] was tested, and the IC50 was 0.0001 to 1 µM. `Cc1noc(C)c1-c1cnc2c(Cc3cccc(Cl)c3)cn(-c3ccnc(C(=O)O)c3)c2c1` [P-0090, 4-(3-(3-chlorobenzyl)-6-(3,5-dimethylisoxazol-4-yl)-1H-pyrrolo[3,2-b]pyridin-1-yl)picolinic acid] showed an IC50 of 0.0001 to 1 µM. Work on `Cc1noc(C)c1-c1cnc2c(Cc3ccccc3Cl)cn(-c3ccnc(C(=O)O)c3)c2c1` [P-0091, 4-(3-(2-chlorobenzyl)-6-(3,5-dimethylisoxazol-4-yl)-1H-pyrrolo[3,2-b]pyridin-1-yl)picolinic acid] yielded an IC50 of 0.0001 to 1 µM. Compound `Cc1noc(C)c1-c1cnc2c(c1)c(-c1cccc(C(=O)NS(C)(=O)=O)c1)cn2Cc1ccccc1` [P-0092, 3-(1-benzyl-5-(3,5-dimethylisoxazol-4-yl)-1H-pyrrolo[2,3-b]pyridin-3-yl)-N-(methylsulfonyl)benzamide] has an IC50 of 0.0001 to 1 µM. In the case of `Cc1noc(C)c1-c1cnc2c(c1)c(C1=CCC(C(=O)O)CC1)cn2Cc1ccccc1` (stereo not shown) [P-0093, 4-(1-benzyl-5-(3,5-dimethylisoxazol-4-yl)-1H-pyrrolo[2,3-b]pyridin-3-yl)cyclohex-3-ene-1-carboxylic acid], the IC50 is reported as 0.0001 to 1 µM. Compound `Cc1noc(C)c1-c1cnc2c(c1)c(-c1c(F)cc(C(=O)O)cc1F)cn2C(C)c1ccccn1` (stereo not shown) [P-0094, 4-(5-(3,5-dimethylisoxazol-4-yl)-1-(1-(pyridin-2-yl)ethyl)-1H-pyrrolo[2,3-b]pyridin-3-yl)-3,5-difluorobenzoic acid] has an IC50 of 0.0001 to 1 µM. `Cc1noc(C)c1-c1cnc2c(c1)c(-c1c(Cl)cc(C(=O)O)cc1Cl)cn2C(C)c1ccccn1` (stereo not shown) [P-0095, 3,5-dichloro-4-(5-(3,5-dimethylisoxazol-4-yl)-1-(1-(pyridin-2-yl)ethyl)-1H-pyrrolo[2,3-b]pyridin-3-yl)benzoic acid] gave an IC50 of 0.0001 to 1 µM. With `Cc1noc(C)c1-c1cnc2c(c1)c(-c1c(F)ccc(NS(C)(=O)=O)c1F)cn2C(C)c1ccccn1` (stereo not shown) [P-0096, N-(3-(5-(3,5-dimethylisoxazol-4-yl)-1-(1-(pyridin-2-yl)ethyl)-1H-pyrrolo[2,3-b]pyridin-3-yl)-2,4-difluorophenyl)methanesulfonamide] the IC50 was 0.0001 to 1 µM.
